Test results: paper PMC9678865, “An odorant-binding protein in the elephant's trunk is finely tuned to sex pheromone (Z)-7-dodecenyl acetate” (Scientific Reports, 2022)
Entries after “also recorded” stand apart in the source; their conditions may differ.

Experiments:
[1] = test system: second major band (apparent mass around 25 kDa) from expression of LafrOBP1 in P. pastoris; test: Binding of 1-NPN to the second band (around 25 kDa) from LafrOBP1 expression; parameters: species or system African elephant (Loxodonta africana); details: purified second band
Excerpt: Based on above-reported proteomic analysis and on the available sequences in the protein databases, we decided to focus our functional study on the OBP1 of both species. Thus, LafrOBP1 and EmaxOBP1 were expressed in the yeast Pichia pastoris using the protocol reported in the Materials and Methods section. We chose to perform functional studies on recombinant proteins because attempts to purify natural LafrOBP1 from its contaminants were unsuccessful (data not shown). The recombinant proteins were secreted in the culture medium, concentrated by ultrafiltration and purified by anion-exchange chromatography, followed by a step of hydrophobic interaction chromatography on Phenyl Sepharose. Figure S3 reports the SDS-PAGE analysis relative to the expression and purification of the two proteins. The expression of EmaxOBP1 produced a single major band migrating with an apparent molecular weight (around 20 kDa), compatible with the calculated mass for this protein (18,506.7 Da). Instead, the expression of the African elephant orthologue afforded two major bands, the first migrating at the same level as EmaxOBP1, the second with an apparent mass around 25 kDa.

recombinant EmaxOBP1 [2] = biological target: T1, recombinant EmaxOBP1 (Elephas maximus, UniProt Q8HZN2); test: Titration of recombinant protein with fluorescent probe 1-NPN; type: binding, Asian elephant (Elephas maximus); details: 2 μM protein in 50 mM Tris-HCl pH 7.4, room temperature
Method: (§1) Affinities of the fluorescent probe N-phenyl-1-naphthylamine (1-NPN) to EmaxOBP1 and LafrOBP1 (both expressed in yeast) were evaluated by titrating a 2 μM solution of each protein in 50 mM Tris-HCl, pH 7.4 with 1 mM 1-NPN in methanol to final concentrations of 2–16 μM. Dissociation constants of other ligands were measured by displacement of the fluorescent reporter 1-NPN from the complex. Accordingly, solutions of protein and 1-NPN, both at the concentration of 2 μM in 50 mM Tris-HCl, pH 7.4, were titrated with 1 mM methanol solutions of each ligand to final concentrations of 2–16 μM. Emission spectra were recorded on a PerkinElmer FL 6500 spectrofluorimeter in a right-angle configuration, at room temperature, with slits of 5 nm for both excitation and emission, using 1 cm path quartz cuvettes. The excitation wavelength was set at 337 nm and intensities were recorded in correspondence with the peak maximum, around 390 nm. Data for 1-NPN were processed with Prism software.

[3] = test system: OBP in the trunk wash of the Asian elephant; parameters: method as in PMID 12269821; details: tritium-labelled ligand; radioactivity associated with OBP band; no dissociation constant; cited from earlier work
recombinant LafrOBP1 = recombinant LafrOBP1 (Loxodonta africana, UniProt G3UMG1); test: Competitive binding by displacement of 1-NPN; parameters: species or system African elephant (Loxodonta africana); details: protein and 1-NPN 2 μM each, ligand 2–16 μM
Method: (§2) Recombinant LafrOBP1 and EmaxOBP1 were then tested in ligand-binding assays using the Asian elephant pheromones (Z)-7-dodecenyl acetate and frontalin, and the insect pheromone components found in elephants, exo-brevicomin and (E)-β-farnesene, as well as structurally related compounds, and chemicals of different size and structure, which could contribute to estimate the specificity of these proteins. Both LafrOBP1 and EmaxOBP1 bound the fluorescent probe 1-NPN with good affinity (Fig. 5A), thus enabling the use of the fluorescent displacement assay to evaluate the affinities of other ligands. Some representative curves of competitive binding experiments for LafrOBP1 are shown in Fig. 5B-C, while in the histogram of Fig. 5D the binding spectra of LafrOBP1 and EmaxOBP1 are compared. The specificity of LafrOBP1 can be better appreciated from the graph of Fig. 6, where the affinities of esters to the protein are plotted as a function of the ligand's size.
as §1
(§3) Dissociation constants of other ligands were calculated from the corresponding [IC]50 values (the. concentration of each ligand halving the initial value of fluorescence), using the equation: Kd = [IC]50/1 + [1-NPN]/KNPN, where [1-NPN] is the concentration of free 1-NPN and KNPN the. dissociation constant of the complex OBP/1-NPN.

recombinant EmaxOBP1 [4] = biological target: T1, recombinant EmaxOBP1; test: Competitive binding by displacement of 1-NPN; parameters: species or system Asian elephant (Elephas maximus); details: protein and 1-NPN 2 μM each, ligand 2–16 μM
Method: as §2, §1, §3

[5] = biological target: natural LafrOBP1 (trunk wash fractions 26–29, also containing its isoform and LafrVEG) (Loxodonta africana, UniProt G3UMG1); test: Competitive fluorescent (1-NPN) ligand-binding assay on crude anion-exchange fractions 26–29 of trunk wash; parameters: species or system African elephant (Loxodonta africana); details: crude trunk wash fractions 26–29 / natural LafrOBP1
Method: Given the predominant presence of LafrOBP1 in the trunk wash of the African elephant, we attempted purification of this protein from a crude sample of this secretion by anion-exchange chromatography. Relevant fractions (#26–29) were analysed by SDS-PAGE, (Fig. 2A) and nanoLC-ESI-Q-Orbitrap-MS/MS to identify the proteins present and detect possible PTMs. The same fractions were also tested in ligand-binding assays with some of the two elephants' pheromones and other potential semiochemicals to detect any binding activity (Fig. 2B-C).
Figure 2 (A) Fractionation of a crude extract of trunk wash from the African elephant by anion-exchange chromatography. SDS-PAGE analysis of the fractions showing electrophoretic bands in the low molecular weight range (15–25 kDa). (B) Summary of the affinities to (Z)-7-dodecenyl acetate, (E)-β-farnesene and frontalin measured with crude samples of the same fractions. All of them bound with good affinity both (Z)-7-dodecenyl acetate and (E)-β-farnesene. […] Dissociation constants were evaluated using the procedure adopted when dealing with solutions of a pure protein; as this is not the case, the values have to be taken as a crude indication of the affinity of the ligands for the protein. (C) Examples of the competition curves measured with the three ligands on fraction 27. […]
as §1, with “Accordingly, solutions of protein and 1-NPN, both at the concentration of 2 μM in 50 mM Tris-HCl, pH 7.4, were titrated with 1 mM methanol solutions of each ligand to final concentrations of 2–16 μM.” left out, “Data for 1-NPN were processed with Prism software.” left out

natural LafrOBP1 (trunk wash fractions 26–29, also containing its isoform and LafrVEG), sequence (G3UMG1 entry or part of it): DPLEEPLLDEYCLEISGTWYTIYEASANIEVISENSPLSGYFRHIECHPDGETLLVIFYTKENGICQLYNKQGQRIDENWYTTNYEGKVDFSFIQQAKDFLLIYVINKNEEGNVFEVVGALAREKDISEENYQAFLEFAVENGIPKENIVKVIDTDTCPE
recombinant LafrOBP1, sequence (G3UMG1 entry or part of it): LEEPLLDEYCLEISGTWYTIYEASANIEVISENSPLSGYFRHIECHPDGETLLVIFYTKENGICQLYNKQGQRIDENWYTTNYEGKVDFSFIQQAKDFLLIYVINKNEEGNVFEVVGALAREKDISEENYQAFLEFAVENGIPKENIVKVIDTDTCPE
T1 sequence (Q8HZN2 entry or part of it): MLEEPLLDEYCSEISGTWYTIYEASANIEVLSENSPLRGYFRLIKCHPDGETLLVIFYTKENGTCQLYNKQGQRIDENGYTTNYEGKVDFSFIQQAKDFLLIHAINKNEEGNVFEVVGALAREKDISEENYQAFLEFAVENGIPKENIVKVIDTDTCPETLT

Row | SMILES | binding to recombinant LafrOBP1 (in words) (recombinant LafrOBP1) | binding to recombinant EmaxOBP1 (in words) (recombinant EmaxOBP1 [4]) | also measured
1 | c1ccc(Nc2cccc3ccccc23)cc1 [1-NPN, N-phenyl-1-naphthylamine] | – | – | affinity to the 25 kDa band (in words) [1]: did not show any affinity; Kd (recombinant EmaxOBP1 [2]): 460 nM
2 | CCCC/C=C/CCCCCCOC(C)=O [(E)-7-dodecenyl acetate] | – | – | binding to trunk wash OBP (in words) [3]: shown to bind
3 | C=CC(=C)CC/C=C(\C)CCC=C(C)C [(E)-β-farnesene, (6E)-7,11-dimethyl-3-methylene-1,6,10-dodecatriene] | good ligand | – | –
4 | CC/C=C\CCOC(C)=O [(Z)-3-hexenyl acetate] | did not show significant binding | did not show significant binding | –
5 | CCCC/C=C\CCCCCCOC(C)=O [(Z)-7-dodecenyl acetate] | strongest ligand | – | –
6 | CCCCCC/C=C\CCCCCCCC=O [(Z)-9-hexadecenal] | did not show significant binding | did not show significant binding | –
7 | CCCC/C=C\CCCCCCCCCC=O [(Z)-11-hexadecenal] | did not show significant binding; also recorded: did not exhibit significant affinity | did not show significant binding; also recorded: did not exhibit significant affinity | –
8 | CCCC/C=C\CCCCCCCCCCOC(C)=O [(Z)-11-hexadecenyl acetate] | did not show significant binding | did not show significant binding | –
9 | CCCC/C=C\CCCCCCCCCCCC=O [(Z)-13-octadecenal] | did not show significant binding; also recorded: did not exhibit significant affinity | did not show significant binding; also recorded: did not exhibit significant affinity | –
10 | CC1(C)C2CCC1(C)C(O)C2 (stereo not drawn) [borneol] | did not show significant binding | did not show significant binding | –
11 | CCCCCCCCCC=O [decanal] | did not show significant binding; also recorded: did not exhibit significant affinity | did not show significant binding; also recorded: did not exhibit significant affinity | –
12 | CCCCCCCCCCCC=O [dodecanal] | did not show significant binding | did not show significant binding | –
13 | CCCCCCCCCCCCCC(=O)OCC [ethyl myristate] | did not show significant binding | did not show significant binding | –
14 | CC12CCC(CC1)C(C)(C)O2 [eucalyptol] | did not show significant binding | did not show significant binding | binding to recombinant LafrOBP1 (in words) (recombinant LafrOBP1; listed as eucaliptol): did not exhibit significant affinity; binding to recombinant EmaxOBP1 (in words) (recombinant EmaxOBP1 [4]; listed as eucaliptol): did not exhibit significant affinity
15 | C=CCc1ccc(O)c(OC)c1 [eugenol] | did not show significant binding; also recorded: did not exhibit significant affinity | did not show significant binding; also recorded: did not exhibit significant affinity | –
16 | CC[C@H]1O[C@]2(C)CCC[C@H]1O2 [exo-brevicomin, (1R,5S,7R)-7-ethyl-5-methyl-6,8-dioxabicyclo[3.2.1]octane] | – | – | binding to trunk wash fractions (in words) [5]: did not exhibit any affinity
17 | CC(C)=CCC/C(C)=C/CC/C(C)=C/CO [farnesol] | – | – | binding to trunk wash fractions (in words) [5]: as good a ligand as (E)- β-farnesene
18 | CC12CCCC(C)(OC1)O2 (stereo not drawn) [frontalin, 1,5-dimethyl-6,8-dioxabicyclo[3.2.1]octane] | no affinity; also recorded: did not exhibit any affinity | no affinity | binding to trunk wash fractions (in words) [5]: none of them appreciably bound; also recorded: no affinity
19 | CCCCCC=O [hexanal] | did not exhibit significant affinity | did not exhibit significant affinity | –
20 | CCCCCCCC=O [octanal] | did not show significant binding; also recorded: did not exhibit significant affinity | did not show significant binding; also recorded: did not exhibit significant affinity | –
21 | Cc1ccc(O)cc1 [p-cresol] | did not exhibit significant affinity | did not exhibit significant affinity | –
22 | CCCCCCCCCC1CCC(=O)O1 (stereo not drawn) [γ-tridecalactone] | did not show significant binding | did not show significant binding | –
